# Reference: US20240209028A1, “CNP COMPOUNDS” (priority 2022, published 2024)
# Starred links: 1 amine or outer side, 2 acyl side, 3 side chain; linkers in the order of their positions; H or OH if unused. Positions of bridges follow the written chain, without caps; N, C: chain ends. Residues, ends and D or L forms follow the SMILES beside them. *: point of attachment. C18 diacid = O=C(O)CCCCCCCCCCCCCCCCC(=O)*; γGlu = O=C(O)[C@H](CCC(=O)[*:2])N[*:1]; AEEA = NCCOCCOCC(=O)O
# Assay: Thioflavin T (ThT) assay: lagtime and peptide recovery
# Assay type: physicochemical
# Conditions: ThT assay, pH 6.5, 37° C.; assay terminated after 45 hours
# Description: The ThT assay was used to evaluate physical stability of the CNP compounds and their suitability for liquid formulation. Low physical stability of peptides may lead to amyloid fibril formation, which is observed as well-ordered, thread-like macromolecular structures in the sample eventually resulting in gel formation. This has traditionally been tested by visual inspection of the sample. However, that kind of measurement is very subjective and depending on the observer. Therefore, the application of a small molecule indicator probe is much more advantageous. Thioflavin T (ThT) is such a probe and has a distinct fluorescence signature when binding to fibrils [Naiki et al. (1989) Anal. Biochem. 177, 244-249; LeVine (1999) Methods. Enzymol. […], 274-284].
# Procedure: Thioflavin T was added to the supernatant samples from Example 5 (pH 4.0 and 6.5) using an aqueous ThT stock solution to a final concentration of about 1 μM in the samples. Sample aliquots of 150 μL were placed in a 96 well microtiter plate (Packard OptiPlate™-96, white polystyrene). Usually, two to three replicas of each sample were applied to the plate. The plate was sealed and placed in a fluorescence plate reader (Fluoroskan Ascent FL) and incubated at 37° C. with orbital shaking (960 rpm; 1 mm amplitude). Fluorescence measurements were performed every 20 minutes using excitation through a 444 nm filter and measurement of emission through a 485 nm filter. Between each measurement, the plate was shaken and heated as described above and the assay was terminated after 45 hours. Fluorescence measurements for each microtiter plate well were plotted against time and the lag-time (time until an increase in ThT fluorescence was observed) was estimated.
# To assess loss of dissolved peptide following 45h incubation, peptide recovery was measured as the ratio between total peak area after incubation vs. before incubation using the RP-UPLC method described below.
# Measurement of LagTime and Peptide recovery % using RP-UPLC: RP-UPLC was conducted using an Acquity UPLC BEH C18 1.7 μm (2.1×30 mm) Waters column (Eluent A: 0.1% v/v % TFA in water; Eluent B: 0.1% v/v TFA in acetonitrile/water 4:1) with gradient elution (0 min: 95% A; 2 min: 20% A; 2.3 min: 20% A; 2.4 min: 95% A; 9 min: 95% A) in a flow rate of 0.9 mL/min and a column temperature of 30° C. UV-detection at 215 nm was used to assess the total peptide area.
# Samples at pH 4.0 were prepared as described in Example 5 and subjected to the ThT assay as described above.
# Samples at pH 6.5 were prepared as described in Example 5 and subjected to the ThT assay as described above.
row,SMILES,LagTime (h) at pH 6.5
1,CC[C@H](C)[C@@H]1NC(=O)[C@H](CCCNC(=N)N)NC(=O)[C@H](CC(=O)O)NC(=O)[C@H](CC(C)C)NC(=O)[C@@H]2CCCN2C(=O)[C@H](CC(C)C)NC(=O)CNC(=O)[C@H](Cc2ccccc2)NC(=O)[C@@H](NC(=O)CNC(=O)[C@H](CCC(N)=O)NC(=O)[C@H](CO)NC(=O)[C@H](CC(C)C)NC(=O)CNC(=O)[C@H](CCCCN)NC(=O)[C@H](CCCCN)NC(=O)[C@H](CCC(N)=O)NC(=O)[C@H](C)NC(=O)CNC(=O)[C@H](CCCCN)NC(=O)[C@H](Cc2ccc(O)cc2)NC(=O)[C@H](CCCCN)NC(=O)[C@H](CCCNC(=N)N)NC(=O)[C@H](C)NC(=O)[C@H](CCC(N)=O)NC(=O)[C@@H]2CCCN2C(=O)[C@H](Cc2c[nH]cn2)NC(=O)[C@H](CCC(=O)O)NC(=O)[C@H](CCC(N)=O)NC(=O)COCCOCCNC(=O)COCCOCCNC(=O)COCCOCCNC(=O)COCCOCCNC(=O)CC[C@H](NC(=O)CC[C@H](NC(=O)CC[C@H](NC(=O)CC[C@H](NC(=O)CC[C@H](NC(=O)CCCCCCCCCCCCCCCCC(=O)O)C(=O)O)C(=O)O)C(=O)O)C(=O)O)C(=O)O)CSSC[C@@H](C(=O)O)NC(=O)CNC(=O)[C@H](CC(C)C)NC(=O)CNC(=O)[C@H](CO)NC(=O)[C@H](CC(C)C)NC(=O)[C@H](CO)NC(=O)CNC1=O [compound 1406] ({C18 diacid-γGlu-γGlu-γGlu-γGlu-γGlu-AEEA-AEEA-AEEA-AEEA}-QEHPQARKYKGAQKKGLSQGCFGLPLDRIGSLSGLGC-OH; disulfide 21-37),45 h
2,CC[C@H](C)[C@@H]1NC(=O)[C@H](CCCNC(=N)N)NC(=O)[C@H](CC(=O)O)NC(=O)[C@H](CC(C)C)NC(=O)[C@@H]2CCCN2C(=O)[C@H](CC(C)C)NC(=O)CNC(=O)[C@H](Cc2ccccc2)NC(=O)[C@@H](NC(=O)CNC(=O)[C@H](CCC(N)=O)NC(=O)[C@H](CO)NC(=O)CNC(=O)CNC(=O)[C@H](CCCCN)NC(=O)[C@H](Cc2c[nH]cn2)NC(=O)[C@H](CCC(N)=O)NC(=O)[C@H](C)NC(=O)CNC(=O)[C@H](CCC(=O)O)NC(=O)[C@H](Cc2ccc(O)cc2)NC(=O)[C@H](CCCCN)NC(=O)[C@H](CCCNC(=N)N)NC(=O)[C@H](C)NC(=O)COCCOCCNC(=O)COCCOCCNC(=O)COCCOCCNC(=O)COCCOCCNC(=O)CC[C@H](NC(=O)CC[C@H](NC(=O)CCCCCCCCCCCCCCCCC(=O)O)C(=O)O)C(=O)O)CSSC[C@@H](C(=O)O)NC(=O)CNC(=O)[C@H](CC(C)C)NC(=O)CNC(=O)[C@H](CO)NC(=O)[C@H](CC(C)C)NC(=O)[C@H](CO)NC(=O)CNC1=O [compound 1432] ({C18 diacid-γGlu-γGlu-AEEA-AEEA-AEEA-AEEA}-ARKYEGAQHKGGSQGCFGLPLDRIGSLSGLGC-OH; disulfide 16-32),45 h
3,CC[C@H](C)[C@@H]1NC(=O)[C@H](CCCNC(=N)N)NC(=O)[C@H](CC(=O)O)NC(=O)[C@H](CC(C)C)NC(=O)[C@@H]2CCCN2C(=O)[C@H](CC(C)C)NC(=O)CNC(=O)[C@H](Cc2ccccc2)NC(=O)[C@@H](NC(=O)CNC(=O)[C@H](CCC(N)=O)NC(=O)[C@H](CO)NC(=O)[C@H](CC(C)C)NC(=O)CNC(=O)[C@H](CCCCN)NC(=O)[C@H](CCCCN)NC(=O)[C@H](CCC(N)=O)NC(=O)[C@H](C)NC(=O)CNC(=O)[C@H](CCCCN)NC(=O)[C@H](Cc2ccc(O)cc2)NC(=O)[C@H](CCCCN)NC(=O)[C@H](CCCNC(=N)N)NC(=O)[C@H](C)NC(=O)COCCOCCNC(=O)COCCOCCNC(=O)CC[C@H](NC(=O)CC[C@H](NC(=O)CC[C@H](NC(=O)CC[C@H](NC(=O)CC[C@H](NC(=O)CCCCCCCCCCCCCCCCC(=O)O)C(=O)O)C(=O)O)C(=O)O)C(=O)O)C(=O)O)CSSC[C@@H](C(=O)O)NC(=O)CNC(=O)[C@H](CC(C)C)NC(=O)CNC(=O)[C@H](CO)NC(=O)[C@H](CC(C)C)NC(=O)[C@H](CO)NC(=O)CNC1=O [compound 1453] ({C18 diacid-γGlu-γGlu-γGlu-γGlu-γGlu-AEEA-AEEA}-ARKYKGAQKKGLSQGCFGLPLDRIGSLSGLGC-OH; disulfide 16-32),45 h
4,CC[C@H](C)[C@@H]1NC(=O)[C@H](CCCNC(=N)N)NC(=O)[C@H](CC(=O)O)NC(=O)[C@H](CC(C)C)NC(=O)[C@@H]2CCCN2C(=O)[C@H](CC(C)C)NC(=O)CNC(=O)[C@H](Cc2ccccc2)NC(=O)[C@@H](NC(=O)CNC(=O)[C@H](CCC(N)=O)NC(=O)[C@H](CO)NC(=O)[C@H](CO)NC(=O)CNC(=O)[C@H](CCCCN)NC(=O)[C@H](CCCCN)NC(=O)[C@H](CCC(N)=O)NC(=O)[C@H](C)NC(=O)CNC(=O)[C@@H]2CCCN2C(=O)[C@H](C)NC(=O)[C@H](CCC(N)=O)NC(=O)CNC(=O)[C@@H]2CCCN2C(=O)[C@H](C)NC(=O)[C@H](CCC(N)=O)NC(=O)CNC(=O)[C@@H]2CCCN2C(=O)[C@H](C)NC(=O)[C@H](CCC(N)=O)NC(=O)CNC(=O)COCCOCCNC(=O)COCCOCCNC(=O)CC[C@H](NC(=O)CCCCCCCCCCCCCCCCC(=O)O)C(=O)O)CSSC[C@@H](C(=O)O)NC(=O)CNC(=O)[C@H](CC(C)C)NC(=O)CNC(=O)[C@H](CO)NC(=O)[C@H](CC(C)C)NC(=O)[C@H](CO)NC(=O)CNC1=O [compound 1457] ({C18 diacid-γGlu-AEEA-AEEA}-GQAPGQAPGQAPGAQKKGSSQGCFGLPLDRIGSLSGLGC-OH; disulfide 23-39),45 h

# Same assay, conditions: ThT, 37° C., shaking; assay terminated after 45 hours
row,SMILES,LagTime (h) at pH 4.0
1,CC[C@H](C)[C@@H]1NC(=O)[C@H](CCCNC(=N)N)NC(=O)[C@H](CC(=O)O)NC(=O)[C@H](CC(C)C)NC(=O)[C@@H]2CCCN2C(=O)[C@H](CC(C)C)NC(=O)CNC(=O)[C@H](Cc2ccccc2)NC(=O)[C@@H](NC(=O)CNC(=O)[C@H](CO)NC(=O)[C@H](CO)NC(=O)[C@@H](NC(=O)CNC(=O)[C@H](CCCCN)NC(=O)[C@H](CCCCN)NC(=O)[C@H](CCC(N)=O)NC(=O)[C@H](C)NC(=O)CNC(=O)[C@H](Cc2c[nH]cn2)NC(=O)[C@H](Cc2ccc(O)cc2)NC(=O)[C@H](CCCCN)NC(=O)[C@H](CCCNC(=N)N)NC(=O)[C@H](C)NC(=O)COCCOCCNC(=O)COCCOCCNC(=O)CC[C@H](NC(=O)CC[C@H](NC(=O)CC[C@H](NC(=O)CCCCCCCCCCCCCCCCC(=O)O)C(=O)O)C(=O)O)C(=O)O)C(C)C)CSSC[C@@H](C(=O)O)NC(=O)CNC(=O)[C@H](CC(C)C)NC(=O)CNC(=O)[C@H](CO)NC(=O)[C@H](CC(C)C)NC(=O)[C@H](CO)NC(=O)CNC1=O [compound 1422] ({C18 diacid-γGlu-γGlu-γGlu-AEEA-AEEA}-ARKYHGAQKKGVSSGCFGLPLDRIGSLSGLGC-OH; disulfide 16-32),45 h
2,CC[C@H](C)[C@@H]1NC(=O)[C@H](CCCNC(=N)N)NC(=O)[C@H](CC(=O)O)NC(=O)[C@H](CC(C)C)NC(=O)[C@@H]2CCCN2C(=O)[C@H](CC(C)C)NC(=O)CNC(=O)[C@H](Cc2ccccc2)NC(=O)[C@@H](NC(=O)CNC(=O)[C@H](CCCCN)NC(=O)[C@H](CO)NC(=O)[C@H](CC(C)C)NC(=O)CNC(=O)[C@H](CCCCN)NC(=O)[C@H](CCCCN)NC(=O)[C@H](CCC(N)=O)NC(=O)[C@H](C)NC(=O)CNC(=O)[C@H](CCCCN)NC(=O)[C@H](Cc2ccc(O)cc2)NC(=O)[C@H](CCCCN)NC(=O)[C@H](CCCNC(=N)N)NC(=O)[C@H](C)NC(=O)COCCOCCNC(=O)COCCOCCNC(=O)CC[C@H](NC(=O)CC[C@H](NC(=O)CC[C@H](NC(=O)CC[C@H](NC(=O)CC[C@H](NC(=O)CCCCCCCCCCCCCCCCC(=O)O)C(=O)O)C(=O)O)C(=O)O)C(=O)O)C(=O)O)CSSC[C@@H](C(=O)O)NC(=O)CNC(=O)[C@H](CC(C)C)NC(=O)CNC(=O)[C@H](CO)NC(=O)[C@H](CC(C)C)NC(=O)[C@H](CO)NC(=O)CNC1=O [compound 1470] ({C18 diacid-γGlu-γGlu-γGlu-γGlu-γGlu-AEEA-AEEA}-ARKYKGAQKKGLSKGCFGLPLDRIGSLSGLGC-OH; disulfide 16-32),45 h
